Activity calls are given as the source filed them. The rule behind the calls is not given here.

Series [1] is described as follows: Induction of ROS generation under LED light irradiation assessed as increase in superoxide anion radical level by measuring increase in DHR123 fluorescence at 5 uM measured for 7 mins by fluorescence based analysis. It counts as functional.
The nature of series [2]: Toxicity in BALB/c mouse assessed as effect on lung at 25 mg/kg, iv measured after 14 days by H and E staining based analysis. It counts as organism-based. To be noted: in vivo, 336 h, time 14 day.
A short description of series [3]: Toxicity in BALB/c mouse assessed as effect on tumor at 25 mg/kg, iv measured after 14 days under light irradiation of 300 mW.cm/2 at 400 to 700nm measured after 5 mins by H and E staining based analysis. The series is classed as organism-based. Particulars: in vivo, 336 h, 0.7 µM, time 14 day.

On to `O=c1cc2sc3cc(N4CCNCC4)ccc3nc-2c2ccccc12`, for which the outcome in series [1] was Active. The Activity result in series [2] is recorded as “Non-toxic”; in series [3] it was “Toxic”.

The record behind these values is ChEMBL document CHEMBL6096728, “Simultaneous Induction of Immunogenic Pyroptosis and PD-L1 Downregulation by One Single Photosensitizer for Synergistic Cancer Photoimmunotherapy” (J Med Chem, 2025).
